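Values below derive from 48-hour exposures of cells grown in 96-well plates, with endpoints linearly interpolated between the two concentrations bracketing the appropriate inhibition level. TGI is the concentration that stops growth completely.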
Tests used:
Experiment in all cases: NCI tumour cell line growth inhibition, 48 h
SNB-19 CNS = test system: SNB-19 CNS
MALME-3M melanoma = test system: MALME-3M melanoma
M14 melanoma = test system: M14 melanoma
BT-549 breast = test system: BT-549 breast
OVCAR-5 ovarian = test system: OVCAR-5 ovarian
OVCAR-8 ovarian = test system: OVCAR-8 ovarian
SK-MEL-5 melanoma = test system: SK-MEL-5 melanoma
KM12 colon = test system: KM12 colon
MDA-MB-231 breast = test system: MDA-MB-231 breast
NCI-H460 lung = test system: NCI-H460 lung
HOP-62 NSCLC = test system: HOP-62 NSCLC
NCI/ADR-RES ovarian = test system: NCI/ADR-RES ovarian
PC-3 prostate = test system: PC-3 prostate
RPMI-8226 leukemia = test system: RPMI-8226 leukemia
SN12C renal = test system: SN12C renal
NCI-H522 lung = test system: NCI-H522 lung
HL-60(TB) leukemia = test system: HL-60(TB) leukemia
MOLT-4 leukemia = test system: MOLT-4 leukemia
HS 578T breast = test system: HS 578T breast

Compound | TGI (SNB-19 CNS) | TGI (MALME-3M melanoma) | TGI (M14 melanoma) | TGI (BT-549 breast) | TGI (OVCAR-5 ovarian) | TGI (OVCAR-8 ovarian) | TGI (SK-MEL-5 melanoma) | TGI (KM12 colon) | TGI (MDA-MB-231 breast) | TGI (NCI-H460 lung) | TGI (HOP-62 NSCLC) | TGI (NCI/ADR-RES ovarian) | TGI (PC-3 prostate) | TGI (RPMI-8226 leukemia) | TGI (SN12C renal) | TGI (NCI-H522 lung) | TGI (HL-60(TB) leukemia) | TGI (MOLT-4 leukemia) | TGI (HS 578T breast)
COC(=O)c1c[nH]c2c1-c1cc(C(=O)OCc3ccccc3)n(S(=O)(=O)c3ccc(C)cc3)c1C(=O)C2=O | 0.505 µM | 0.222 µM | 0.289 µM | 0.342 µM | 2.9 µM | 0.927 µM | 0.262 µM | 0.89 µM | 0.401 µM | 2.69 µM | 1.06 µM | 6.01 µM | 1.19 µM | 2.83 µM | 0.481 µM | 0.607 µM | > 100 µM | – | –
CCOC(=O)/C=C/[C@H](O)[C@@H](O)/C=C/C(=O)OCC | 58.2 µM | 46.8 µM | – | > 100 µM | > 100 µM | 44.8 µM | > 100 µM | 47.6 µM | > 100 µM | 43 µM | 85 µM | > 100 µM | > 100 µM | 44.6 µM | 85.2 µM | 39.2 µM | – | 41.5 µM | > 100 µM
Nc1c(N2CCOCC2)c(=O)nc2[nH]/c(=C\c3ccccc3)c(=O)n12 | > 100 µM | > 100 µM | > 100 µM | – | > 100 µM | > 100 µM | > 100 µM | > 100 µM | > 100 µM | > 100 µM | – | > 100 µM | – | > 100 µM | > 100 µM | > 100 µM | 57.3 µM | > 100 µM | > 100 µM
Cc1nn2c(C(=O)N/N=C/c3ccc([N+](=O)[O-])cc3)c(C)nc2s1 | > 100 µM | > 100 µM | > 100 µM | > 100 µM | > 100 µM | > 100 µM | > 100 µM | > 100 µM | 49.4 µM | > 100 µM | > 100 µM | > 100 µM | – | – | > 100 µM | > 100 µM | > 100 µM | > 100 µM | > 100 µM
COc1ccc(/C=C2\Sc3nnc(CNc4ccc(Cl)cc4)n3N=C2c2cc(F)c(Cl)cc2Cl)cc1OC | – | – | > 100 µM | – | > 100 µM | > 100 µM | > 100 µM | > 100 µM | > 100 µM | > 100 µM | > 100 µM | 52.3 µM | > 100 µM | 42.2 µM | – | > 100 µM | > 100 µM | > 100 µM | > 100 µM
O=[N+]([O-])C(=C1Nc2ccccc2N1)/C(Cl)=C(/Cl)N1CCOCC1 | > 100 µM | > 100 µM | > 100 µM | > 100 µM | > 100 µM | > 100 µM | – | > 100 µM | > 100 µM | > 100 µM | > 100 µM | > 100 µM | > 100 µM | > 100 µM | > 100 µM | – | – | > 100 µM | > 100 µM
COC(=O)C1=CN(C2CCCCC2)C2(c3ccccc3)c3ccccc3C(=O)OC(=O)C12 (stereo unspecified) | > 100 µM | > 100 µM | > 100 µM | > 100 µM | > 100 µM | > 100 µM | > 100 µM | > 100 µM | > 100 µM | > 100 µM | > 100 µM | > 100 µM | > 100 µM | – | > 100 µM | > 100 µM | > 100 µM | > 100 µM | –
COC(=O)[C@]1(c2cc3ccccc3[nH]2)CC2CN(CC(=O)N(C)OC)C1CC2(OC)OC (stereo partly specified) | > 100 µM | > 100 µM | > 100 µM | 59.8 µM | > 100 µM | > 100 µM | > 100 µM | > 100 µM | > 100 µM | > 100 µM | > 100 µM | > 100 µM | 71.9 µM | 39.6 µM | > 100 µM | 44.6 µM | 39.5 µM | – | –
COc1ccccc1N=N/C(=N\NC(=O)c1ccc(C)cc1)c1ccc(N(CCC#N)CCC#N)cc1C | > 100 µM | 77.4 µM | > 100 µM | > 100 µM | > 100 µM | > 100 µM | 53.6 µM | > 100 µM | > 100 µM | > 100 µM | > 100 µM | > 100 µM | > 100 µM | > 100 µM | > 100 µM | – | – | > 100 µM | > 100 µM
[O-][N+]1=NC(c2ccccc2)=C1c1ccccc1 | > 50 µM | > 50 µM | > 50 µM | – | > 50 µM | > 50 µM | > 50 µM | > 50 µM | > 50 µM | > 50 µM | > 50 µM | > 50 µM | > 50 µM | > 50 µM | > 50 µM | > 50 µM | > 50 µM | > 50 µM | > 50 µM
CC1Cc2cc(O)c(O)cc2-c2cc(O)c(O)cc2CC1C (stereo unspecified) | 96.2 µM | 20.6 µM | 29.7 µM | – | 45.6 µM | 53.3 µM | 17.4 µM | 14 µM | 24.5 µM | 42.7 µM | 41.9 µM | 38.4 µM | 61.5 µM | > 100 µM | 49 µM | 49.8 µM | – | 32.3 µM | 61.7 µM
O=C(NCCN1CCCCC1)c1ccc(I)cc1 | > 100 µM | > 100 µM | > 100 µM | > 100 µM | > 100 µM | > 100 µM | > 100 µM | > 100 µM | > 100 µM | > 100 µM | > 100 µM | > 100 µM | > 100 µM | > 100 µM | > 100 µM | > 100 µM | – | > 100 µM | > 100 µM
Cc1ccc(N2CCN(CCC(=O)O)CC2)cc1 | > 100 µM | > 100 µM | > 100 µM | > 100 µM | > 100 µM | > 100 µM | > 100 µM | > 100 µM | > 100 µM | > 100 µM | > 100 µM | > 100 µM | > 100 µM | > 100 µM | > 100 µM | > 100 µM | – | – | > 100 µM
Clc1ccc(-c2ccc(-c3nnc(COc4ccc(OCc5nnc(-c6ccc(-c7ccc(Cl)cc7Cl)o6)o5)c(Cl)c4)o3)o2)c(Cl)c1 | > 100 µM | – | > 100 µM | > 100 µM | > 100 µM | > 100 µM | > 100 µM | > 100 µM | > 100 µM | > 100 µM | > 100 µM | > 100 µM | – | > 100 µM | > 100 µM | > 100 µM | > 100 µM | 64.2 µM | > 100 µM

Reference: PubChem BioAssay (NCI)
